Measured values: patent US20160030415A1, “TREATMENT AND PROPHYLAXIS OF KIDNEY DISEASES” (priority 2013, published 2016)

System: Streptozotocin (STZ) induced diabetic rats
Experiment: Study 2: HCQ and its combination with Losartan in comparison with anti-diabetic control (Glimepiride) in renal damage
Type: in vivo, Wistar rats
Settings: for Serum Creatinine after 8th week / Serum Creatinine after 8th week (% Control) / Total Serum Protein Levels after 8th week / Total Serum Protein Levels after 8th week (% Control): Glimepiride 8 mg/kg alone (antidiabetic control) or with Losartan 11 mg/kg and/or Hydroxychloroquine 45 mg/kg, oral once daily; for Total Protein in Kidney Homogenate (% Control) / Total Protein in Kidney Homogenate Mean / TBARS (% Control) / TBARS Mean: after 8th week, Glimepiride 8 mg/kg alone or with Losartan 11 mg/kg and/or Hydroxychloroquine 45 mg/kg; for TBARS (% Control) / TBARS Mean: kidney homogenate
Experimental: The Efficacy of the drugs was tested in two different models, one involving comparison with diabetic control (i.e. Diabetic Rats not treated with any medication) and the other involving comparison with the anti-diabetic control group (i.e. Diabetic rats administered Glimepiride) in two separate studies. 30 Wistar rats of either sex weighing 150-250 g were divided randomly into 5 groups consisting of 6 animals each. Diabetes was induced in rats by single administration of Streptozotocin (STZ)(55 mg/kg/i.p) dissolved in 0.1 M-citrate buffer, pH 4.5. Group 1 (normal control) consisted of normal rats that neither received streptozotocin nor any test drug; Group 2 served as Anti-Diabetic control wherein diabetic rats were treated with antidiabetic drug Glimepiride. Group 3 was diabetic rats treated with Losartan (11 mg/kg); Group 4 was diabetic rats treated with Hydroxychloroquine (45 mg/kg) and Group 5 was diabetic rats treated with combination of Hydroxychloroquine (45 mg/kg) and Losartan (11 mg/kg). The study drugs were dissolved/suspended in distilled water and administered orally once a day for eight weeks. The diabetes mellitus induced nephropathy was assessed by estimating the level of serum creatinine and total serum protein content after completion of eighth week of study. TBARS and Total Protein were measured as markers of renal oxidative stress in Kidney Homogenate after completion of eighth week of study.

SMILES | Serum Creatinine after 8th week | Serum Creatinine after 8th week (% Control) | Total Serum Protein Levels after 8th week | Total Serum Protein Levels after 8th week (% Control) | Total Protein in Kidney Homogenate (% Control) | Total Protein in Kidney Homogenate Mean | TBARS (% Control) | TBARS Mean
CCN(CCO)CCCC(C)Nc1ccnc2cc(Cl)ccc12 (stereo not shown) [Hydroxychloroquine, 2-[{4-[(7-chloroquinolin-4-yl)amino]pentyl}(ethyl)amino]ethanol] | 2.80 mg/dL | (88.33) % Control | 5.39 g/dL | (112.24) % Control | (107.68) % Control | 1003.83 µg/mL | (57.32) % Control | 0.47 nM/mg
CCCCc1nc(Cl)c(CO)n1Cc1ccc(-c2ccccc2-c2nn[nH]n2)cc1 [Losartan] | 3.00 mg/dL | (94.64) % Control | 5.45 g/dL | (113.21) % Control | (98.15) % Control | 909.50 µg/mL | (76.83) % Control | 0.63 nM/mg
